Test in all cases: relative viability (nuclei count vs DMSO), 5 days (fraction); higher = more cells survive
Compound in experiment [1]: C1=CC=C(C(=C1)C2=CC=C(C=C2)C3=CSC4=C3C(=C(C(=O)N4)C#N)O)O + NC(=O)Nc1cc(-c2cccc(F)c2)sc1C(=O)N[C@H]1CCCNC1 [AZD7762] (partner 0.2 µM)
The essentials:
(§1)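 The day after seeding in 1536-well plates, lung cancer cell lines were treated by pin tool with a single drug, or with a fixed anchor-drug dose together with five library-drug doses (not always all listed) in √10 steps. After 5 days, a combined fix-and-stain solution (final 0.05% Triton X-100, 1% formaldehyde, 1 ug/ml Hoechst) was added. Nuclei counted on 4× images gave relative viability as treated counts over vehicle counts, reported as the median of duplicate plates.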

Compound in experiment [2]: O=C(CCCCCCNC(=O)c1cnc(N(c2ccccc2)c2ccccc2)nc1)NO [Ricolinostat] + CC(=O)c1c(C)c2cnc(Nc3ccc(N4CCNCC4)cn3)nc2n(C2CCCC2)c1=O [Palbociclib] (partner 0.5 µM)
Put shortly:
as §1

Compound in the next experiment: O=C(CCCCCCNC(=O)c1cnc(N(c2ccccc2)c2ccccc2)nc1)NO [Ricolinostat]
The essentials:
(§2)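 Viability was read as treated-well nuclei divided by vehicle-well nuclei, using the median across plates. Lung cancer cell lines in 1536-well plates were kept overnight at 37 °C, pinned with five √10-spaced library-drug doses, and after 5 days were Hoechst-stained, imaged at 4× and counted in MetaXpress. Plates passed only with control CV below 25% and at least one doubling.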

Compound in another experiment: CC1=CN2C(=O)C=C(N=C2C(=C1)C(C)NC3=CC=CC=C3)N4CCOCC4 [TGX 221]
Put shortly:
as §2

Compound in experiment [3]: C1=CC=C(C(=C1)C2=CC=C(C=C2)C3=CSC4=C3C(=C(C(=O)N4)C#N)O)O
Put shortly:
as §2

As to NCI-H1792, the relative viability in experiment [1] (first compound 0.253 µM) was 0.953; in experiment [1] (first compound 0.8 µM) it was 0.329; in experiment [1] (first compound 2.53 µM), 0.551; in experiment [1] (first compound 8 µM), 0.532; in experiment [2] (first compound 0.253 µM), 0.635; in experiment [2] (first compound 0.8 µM) it was 0.684. For the same cell line, the relative viability in experiment [2] (first compound 2.53 µM) turned out to be 0.742; with Ricolinostat (0.08 µM), 0.599; with Ricolinostat (0.253 µM) it was 0.938; with Ricolinostat (0.8 µM), 0.754; with Ricolinostat (2.53 µM), 0.57; in the experiment with TGX 221 (0.08 µM), 0.749. Further, the relative viability with TGX 221 (0.253 µM) was determined as 0.878; with TGX 221 (0.8 µM) it was 1; in the experiment with TGX 221 (2.53 µM), 0.883; with TGX 221 (8 µM), 0.864; in experiment [3] (0.253 µM) it was 1.01; in experiment [3] (0.8 µM) it was 0.723. The relative viability in experiment [3] (2.53 µM) was 0.921; in experiment [3] (8 µM), 0.446.

Source of the values: the supplement of paper PMC10307832.
